Where two headings read alike, the source gives them in different places.
Columns and labels:
Test in all cases: Kinase panel profiling at 1 µmol/L (MSA or IMAP), percentage inhibition
Format in all cases: biochemical
[1] = target: panel of 255 wild-type kinases (Homo sapiens, UniProt P48729); conditions: read-out: %-inhibition at 1 µmol/L, CK1α
[2] = target: T1, panel of 255 wild-type kinases (Homo sapiens, UniProt O00141); conditions: read-out: %-inhibition at 1 µmol/L, SGK
T1 sequence (O00141 1-431): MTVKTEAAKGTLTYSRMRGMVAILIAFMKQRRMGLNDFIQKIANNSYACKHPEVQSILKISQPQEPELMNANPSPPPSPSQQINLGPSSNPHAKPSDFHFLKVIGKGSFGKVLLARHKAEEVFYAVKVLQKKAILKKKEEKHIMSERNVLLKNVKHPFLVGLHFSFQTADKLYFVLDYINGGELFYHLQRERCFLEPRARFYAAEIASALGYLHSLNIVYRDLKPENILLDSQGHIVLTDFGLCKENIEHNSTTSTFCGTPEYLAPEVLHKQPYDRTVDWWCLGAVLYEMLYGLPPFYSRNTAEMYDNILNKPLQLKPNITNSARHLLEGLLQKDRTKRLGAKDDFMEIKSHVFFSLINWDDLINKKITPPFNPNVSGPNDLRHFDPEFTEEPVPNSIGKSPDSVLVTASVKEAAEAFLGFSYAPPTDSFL

[3] = target: panel of 255 wild-type kinases (Homo sapiens, UniProt P57059); conditions: read-out: %-inhibition at 1 µmol/L, SIK
[4] = target: panel of 255 wild-type kinases (Homo sapiens, UniProt Q13177); conditions: read-out: %-inhibition, PAK2
[5] = target: panel of 255 wild-type kinases (Homo sapiens, UniProt P31751); conditions: read-out: %-inhibition AKT2
[6] = target: T2, panel of 255 wild-type kinases (Homo sapiens, UniProt Q12866); conditions: read-out: %-inhibition, MER
T2 sequence (Q12866 21-999): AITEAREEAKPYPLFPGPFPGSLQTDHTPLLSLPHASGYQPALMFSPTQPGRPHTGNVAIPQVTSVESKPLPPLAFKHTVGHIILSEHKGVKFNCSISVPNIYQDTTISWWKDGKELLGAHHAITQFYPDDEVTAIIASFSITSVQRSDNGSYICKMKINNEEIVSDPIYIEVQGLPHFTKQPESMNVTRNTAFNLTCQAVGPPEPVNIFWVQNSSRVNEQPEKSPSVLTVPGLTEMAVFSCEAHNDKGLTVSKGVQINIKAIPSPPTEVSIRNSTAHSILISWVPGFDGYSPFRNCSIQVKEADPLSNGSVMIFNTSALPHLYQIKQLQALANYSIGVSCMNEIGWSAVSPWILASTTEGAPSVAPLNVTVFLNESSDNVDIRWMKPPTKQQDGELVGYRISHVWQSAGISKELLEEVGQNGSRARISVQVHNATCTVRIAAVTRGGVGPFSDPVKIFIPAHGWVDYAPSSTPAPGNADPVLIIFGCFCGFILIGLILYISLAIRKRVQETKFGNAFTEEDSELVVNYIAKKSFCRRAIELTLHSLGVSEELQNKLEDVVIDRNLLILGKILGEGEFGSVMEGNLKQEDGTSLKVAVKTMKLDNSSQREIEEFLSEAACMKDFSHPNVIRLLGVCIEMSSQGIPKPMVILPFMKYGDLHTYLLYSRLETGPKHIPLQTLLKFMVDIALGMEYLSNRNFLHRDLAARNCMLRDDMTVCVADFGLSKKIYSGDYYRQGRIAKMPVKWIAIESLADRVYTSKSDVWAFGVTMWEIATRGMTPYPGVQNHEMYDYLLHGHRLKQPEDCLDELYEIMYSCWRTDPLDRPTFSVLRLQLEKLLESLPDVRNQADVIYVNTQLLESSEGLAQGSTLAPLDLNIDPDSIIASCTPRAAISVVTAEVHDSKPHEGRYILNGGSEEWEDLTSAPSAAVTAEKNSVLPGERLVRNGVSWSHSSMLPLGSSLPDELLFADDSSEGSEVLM

[7] = target: panel of 255 wild-type kinases (Homo sapiens, UniProt P08631); conditions: read-out: %-inhibition at 1 µmol/L, HCK
[8] = target: panel of 255 wild-type kinases (Homo sapiens, UniProt Q13153); conditions: read-out: %-inhibition, PAK1
[9] = target: T3, panel of 255 wild-type kinases (Homo sapiens, UniProt Q9HBY8); conditions: read-out: %-inhibition at 1 µmol/L, SGK2
T3 sequence (Q9HBY8 1-367): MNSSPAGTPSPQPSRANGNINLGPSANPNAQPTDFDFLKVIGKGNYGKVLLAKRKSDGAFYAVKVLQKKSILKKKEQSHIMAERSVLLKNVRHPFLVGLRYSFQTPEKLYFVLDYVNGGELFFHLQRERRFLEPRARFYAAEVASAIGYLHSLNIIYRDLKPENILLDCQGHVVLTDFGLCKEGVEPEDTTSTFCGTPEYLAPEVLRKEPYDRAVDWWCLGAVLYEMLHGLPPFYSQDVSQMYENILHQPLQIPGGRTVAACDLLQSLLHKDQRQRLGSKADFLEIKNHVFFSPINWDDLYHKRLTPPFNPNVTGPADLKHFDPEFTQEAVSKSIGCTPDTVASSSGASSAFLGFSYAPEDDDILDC

[10] = kinase CK1α, 1 µmol/L single concentration
[11] = kinase SGK, 1 µmol/L single concentration
[12] = kinase SIK, 1 µmol/L single concentration
[13] = PAK2, 1 µmol/L single concentration
[14] = AKT2 kinase assay, 1 µmol/L single concentration
[15] = MER, 1 µmol/L single concentration
[16] = kinase HCK, 1 µmol/L single concentration
[17] = PAK1, 1 µmol/L single concentration
[18] = kinase SGK2, 1 µmol/L single concentration

| Structure (SMILES) | inhibition at 1 µM [1, 10] | inhibition at 1 µM [2, 11] | inhibition at 1 µM [3, 12] | inhibition at 1 µM [4, 13] | inhibition at 1 µM [5, 14] | inhibition at 1 µM [6, 15] | inhibition at 1 µM [7, 16] | inhibition at 1 µM [8, 17] | inhibition at 1 µM [9, 18] | inhibition at 1 µM [1] | inhibition at 1 µM [2] | inhibition at 1 µM [3] | inhibition at 1 µM [4] | inhibition at 1 µM [5] | inhibition at 1 µM [6] | inhibition at 1 µM [7] | inhibition at 1 µM [8] | inhibition at 1 µM [9] |
| --- | --- | --- | --- | --- | --- | --- | --- | --- | --- | --- | --- | --- | --- | --- | --- | --- | --- | --- |
| Cc1nc(NC(=O)N2CCC[C@H]2C(N)=O)sc1-c1ccnc(C(C)(C)C(F)(F)F)c1 [alpelisib] | -14% | -5.64% | -10% | -7% | -0.795% | -3.44% | 4.56% | -3.29% | -2% |  |  |  |  |  |  |  |  |  |
| Cn1cc(-c2cc3c(N4CCN(c5ncc([C@@](C)(N)c6ccc(F)cc6)cn5)CC4)ncnn3c2)cn1 [avapritinib] | 5% | 0.775% | 37% | -4.42% | -0.192% | 17% | 52% | 0.845% | -4.22% |  |  |  |  |  |  |  |  |  |
| Cn1cnc2c(F)c(Nc3ccc(Br)cc3F)c(C(=O)NOCCO)cc21 [binimetinib] | 9% | 5% | 0.277% | 12% | 0.0508% | -2.19% | -8% | 5% | -0.294% |  |  |  |  |  |  |  |  |  |
| CNC(=O)c1ccc(-c2cnc3ncc(Cc4ccc5ncccc5c4)n3n2)cc1F [capmatinib] |  |  |  |  |  |  |  |  |  | -5.42% | -0.731% | -6.33% | -1.68% | 1.54% | 13% | -1.63% | 4.66% | -5.54% |
| COc1cc2ncnc(Nc3ccc(F)c(Cl)c3)c2cc1NC(=O)/C=C/CN1CCCCC1 [dacomitinib] | 8% | -6% | 40% | 2.5% | -1.19% | 19% | 57% | 0.38% | -9% |  |  |  |  |  |  |  |  |  |
| C[C@H](Nc1ncnc2nc[nH]c12)c1cc2cccc(Cl)c2c(=O)n1-c1ccccc1 [duvelisib] | -2% | -3.47% | -1.9% | -1% | -0.908% | -1% | 6% | -0.68% | -2.27% |  |  |  |  |  |  |  |  |  |
| COC(=O)N[C@@H](C)CNc1nccc(-c2cn(C(C)C)nc2-c2cc(Cl)cc(NS(C)(=O)=O)c2F)n1 [encorafenib] | 36% | 7% | 2.23% | 9.49% | 2% | 0.281% | -5.46% | 12% | 3.5% |  |  |  |  |  |  |  |  |  |
| CN1CCN(c2ccc(C(=O)Nc3n[nH]c4ccc(Cc5cc(F)cc(F)c5)cc34)c(NC3CCOCC3)c2)CC1 [entrectinib] |  | -5.65% | 7.49% | -10% | -3.69% | 61% | 91% | -10% | -3.18% |  |  |  |  |  |  |  |  |  |
| CCc1nc(C(N)=O)c(Nc2ccc(N3CCC(N4CCN(C)CC4)CC3)c(OC)c2)nc1NC1CCOCC1 [gilteritinib] | 13% | 8.52% | 59% | 10% | -4.73% |  | 87% | 4% | -3.51% |  |  |  |  |  | 100% |  |  |  |
| CCN1CCN(c2ccc(Nc3cc(N(C)C(=O)Nc4c(Cl)c(OC)cc(OC)c4Cl)ncn3)cc2)CC1 [infigratinib] | -7.38% | -1.45% | 30% | 1.66% | -0.769% | 15% | 22% | 5% | -8% |  |  |  |  |  |  |  |  |  |
| O=C(Nc1cnn2ccc(N3CCC[C@@H]3c3cc(F)ccc3F)nc12)N1CC[C@H](O)C1 [larotrectinib] | 1.46% | -1.16% | -1.7% | -10% | -5.27% | 6% | -3% | -3.56% | -4% |  |  |  |  |  |  |  |  |  |
| C[C@H]1Oc2cc(cnc2N)-c2c(nn(C)c2C#N)CN(C)C(=O)c2ccc(F)cc21 [lorlatinib] | -12% | -0.181% | -1.87% | 11% | -2.31% | 11% | 42% | -2.12% | 4.34% |  |  |  |  |  |  |  |  |  |
| CCN1C(=O)N(c2c(F)c(OC)cc(OC)c2F)Cc2cnc3[nH]c(CN4CCOCC4)cc3c21 [pemigatinib] | 2.22% | 5% | 22% | 6% | -2.2% | 7% | 31% | -3.62% | 8% |  |  |  |  |  |  |  |  |  |
| FC(F)(F)c1ccc(CNc2ccc(Cc3c[nH]c4ncc(Cl)cc34)cn2)cn1 [pexidartinib] | 4.47% | 11% | 9% | -2.4% | -6% | 54% | 3% | 2% | 8% |  |  |  |  |  |  |  |  |  |
| C=CC(=O)N1CCC([C@@H]2CCNc3c(C(N)=O)c(-c4ccc(Oc5ccccc5)cc4)nn32)CC1 [zanubrutinib] | -0.607% | -0.675% | -2% | 10% | -4% | 6% |  | -2.56% | -2.33% |  |  |  |  |  |  |  |  |  |

Reference: paper PMC9516332 (Frontiers in Oncology, 2022)
